{
  "source": "patent US20240307372A1",
  "about": "“COMPOSITIONS AND METHODS TO IMPROVE BENEFIT OF SUBOPTIMALLY ADMINISTERED THERAPEUCTICS FOR THE TREATMENT OF BENIGN AND NEOPLASTIC DISEASES, INFECTIONS, INFLAMMATORY, METABOLIC AND IMMUNOLOGIAL DISEASES” (priority 2023, published 2024)",
  "biological_target": "T1, CAMKII gamma (Homo sapiens, UniProt Q13555)",
  "T1 construct": "purchased Promega V3531",
  "T1 sequence (Q13555 whole entry)": "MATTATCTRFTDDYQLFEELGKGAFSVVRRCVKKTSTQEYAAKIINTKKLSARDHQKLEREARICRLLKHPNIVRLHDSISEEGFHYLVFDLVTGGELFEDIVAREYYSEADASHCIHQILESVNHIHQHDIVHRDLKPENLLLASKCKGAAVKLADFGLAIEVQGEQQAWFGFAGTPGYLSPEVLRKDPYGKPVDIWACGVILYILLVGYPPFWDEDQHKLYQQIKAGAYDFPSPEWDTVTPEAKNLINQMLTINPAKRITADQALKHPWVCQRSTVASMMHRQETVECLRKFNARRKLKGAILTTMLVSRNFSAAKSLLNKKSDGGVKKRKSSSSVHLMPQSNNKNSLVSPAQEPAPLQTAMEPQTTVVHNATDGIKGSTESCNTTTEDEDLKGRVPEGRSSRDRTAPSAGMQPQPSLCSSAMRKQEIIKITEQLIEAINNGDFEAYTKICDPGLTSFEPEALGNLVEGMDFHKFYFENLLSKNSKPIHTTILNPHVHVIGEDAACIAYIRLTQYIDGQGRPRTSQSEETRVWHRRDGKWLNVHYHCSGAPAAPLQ",
  "test": "CAMKII gamma kinase activity, ADP Glo (Promega)",
  "type": "biochemical",
  "settings": "10 uM ATP",
  "procedure": "An enzymatic study was conducted to evaluate the inhibition of CAMKII gamma by ES-3000 (Tetrandrine). CAMKII gamma kinase activity was measured using […] purchased from Promega following the Promega protocol. CAMKII enzyme system purchased from Promega (V3531). ADP Glo was used for detection. Assay optimized for linearity of protein and time. Conditions for inhibitor screening 25 ng CAMKII, 20 min. incubations, inhibitor or DMSO (5%) at RT in 20 uL total volume. Inhibitor, ATP (10 or 50 uM), substrates and buffer added to tubes and reactions started with enzyme. […] Reactions terminated at 20 min. by adding ADP Glo reaction following manufactures instructions. All reactions were done in duplicate. Calculations of percent (%) inhibition determined by dividing the mean activity at each condition by the mean of the DMSO control times 100.",
  "data": [
    {"smiles": "COc1cc2c3cc1Oc1c(OC)c(OC)cc4c1[C@@H](Cc1ccc(O)c(c1)Oc1ccc(cc1)C[C@@H]3N(C)CC2)N(C)CC4", "note": "[berbamine, reference compound]", "values": [
      {"measurement": "% inhibition", "setting": "30 uM", "result": 37, "unit": "%"},
      {"measurement": "inhibition at 30 µM", "setting": "30 uM", "result": 36.7, "unit": "%"},
      {"measurement": "kinase activity, % of DMSO control", "setting": "30 uM", "result": 63, "unit": "%"},
      {"measurement": "% inhibition", "setting": "100 uM", "result": 47, "unit": "%"},
      {"measurement": "inhibition at 100 µM", "setting": "100 uM", "result": 47.1, "unit": "%"},
      {"measurement": "kinase activity, % of DMSO control", "setting": "100 uM", "result": 53, "unit": "%"},
      {"measurement": "% inhibition", "setting": "250 uM", "result": 46, "unit": "%"},
      {"measurement": "inhibition at 250 µM", "setting": "250 uM", "result": 46.3, "unit": "%"},
      {"measurement": "kinase activity, % of DMSO control", "setting": "250 uM", "result": 54, "unit": "%"}
    ]}
  ]
}
